Test results published in patent US9828396B2, “Alkyne compounds for treatment of complement mediated disorders” (Achillion Pharmaceuticals, Inc., priority 2014, dated 2017).

Biological target: Human factor D (Homo sapiens (Human), UniProt P00746)
Assay: Human Factor D Assay
Assay type: biochemical
Conditions: Human factor D 80 nM, substrate Z-L-Lys-SBzl, assay of Example 12
Outline: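 Serum-purified human factor D (80 nM final) was preincubated 5 min at room temperature with compound in 50 mM Tris, 1 M NaCl, pH 7.5. Z-L-Lys-SBzl and DTNB (100 μM each) were added and OD405 followed kinetically over 30 min; IC50 from non-linear regression of percent inhibition.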

Sequence of Human factor D (P00746 26-253): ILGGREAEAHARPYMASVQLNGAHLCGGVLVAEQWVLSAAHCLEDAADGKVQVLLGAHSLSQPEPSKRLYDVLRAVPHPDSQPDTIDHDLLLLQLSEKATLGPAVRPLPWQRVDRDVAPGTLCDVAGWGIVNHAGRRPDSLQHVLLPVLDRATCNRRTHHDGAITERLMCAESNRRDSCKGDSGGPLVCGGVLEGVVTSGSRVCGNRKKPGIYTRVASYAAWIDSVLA

| Compound | IC50 [µM] |
| --- | --- |
| NC(=O)c1nn(CC(=O)N2C[C@H](F)C[C@H]2C(=O)Nc2ccc(C(F)(F)F)c(Cl)n2)c2ccc(C#Cc3ncc(F)cn3)cc12 [Compound 76, 1-(2-((2S,4R)-2-(6-chloro-5-(trifluoromethyl)pyridin-2-ylcarbamoyl)-4-fluoropyrrolidin-1-yl)-2-oxoethyl)-5-((5-fluoropyrimidin-2-yl)ethynyl)-1H-indazole-3-carboxamide] | < 1 |
| NC(=O)c1nn(CC(=O)N2[C@@H]3C[C@@H]3C[C@H]2C(=O)Nc2cccc(Cl)n2)c2ccc(C#Cc3cccnn3)cc12 [Compound 77, 1-(2-((1R,3S,5R)-3-(6-chloropyridin-2-ylcarbamoyl)-2-azabicyclo[3.1.0]hexan-2-yl)-2-oxoethyl)-5-(pyridazin-3-ylethynyl)-1H-indazole-3-carboxamide] | < 1 |
| COc1nc(C#Cc2ccc3c(c2)c(C(N)=O)nn3CC(=O)N2C[C@H](F)C[C@H]2C(=O)Nc2cccc(-c3ccccc3Cl)c2F)ncc1F [Compound 78, 1-(2-((2S,4R)-2-(2′-chloro-2-fluorobiphenyl-3-ylcarbamoyl)-4-fluoropyrrolidin-1-yl)-2-oxoethyl)-5-((5-fluoro-4-methoxypyrimidin-2-yl)ethynyl)-1H-indazole-3-carboxamide] | < 1 |
| NC(=O)c1nn(CC(=O)N2C[C@H](F)C[C@H]2C(=O)Nc2cccc(-c3ccccc3Cl)c2F)c2ccc(C#Cc3ccnnc3)cc12 [Compound 79, 1-(2-((2S,4R)-2-(2′-chloro-2-fluorobiphenyl-3-ylcarbamoyl)-4-fluoropyrrolidin-1-yl)-2-oxoethyl)-5-(pyridazin-4-ylethynyl)-1H-indazole-3-carboxamide] | < 1 |
| NC(=O)c1nn(CC(=O)N2C[C@H](F)C[C@H]2C(=O)Nc2cccc(Cl)n2)c2ccc(C#Cc3ccnnc3)cc12 [Compound 80, 1-(2-((2S,4R)-2-(6-chloropyridin-2-ylcarbamoyl)-4-fluoropyrrolidin-1-yl)-2-oxoethyl)-5-(pyridazin-4-ylethynyl)-1H-indazole-3-carboxamide] | < 1 |
| NC(=O)c1nn(CC(=O)N2C[C@H](F)C[C@H]2C(=O)Nc2nc(Cl)ccc2F)c2ccc(C#Cc3ncc(F)cn3)cc12 [Compound 81, 1-(2-((2S,4R)-2-(6-chloro-3-fluoropyridin-2-ylcarbamoyl)-4-fluoropyrrolidin-1-yl)-2-oxoethyl)-5-((5-fluoropyrimidin-2-yl)ethynyl)-1H-indazole-3-carboxamide] | < 1 |
| NC(=O)c1nn(CC(=O)N2C[C@H](F)C[C@H]2C(=O)Nc2cccc(Cl)n2)c2ccc(C#Cc3cnccn3)cc12 [Compound 82, 1-(2-((2S,4R)-2-(6-chloropyridin-2-ylcarbamoyl)-4-fluoropyrrolidin-1-yl)-2-oxoethyl)-5-(pyrazin-2-ylethynyl)-1H-indazole-3-carboxamide] | < 1 |
| NC(=O)c1nn(CC(=O)N2C[C@H](F)C[C@H]2C(=O)Nc2cccc(-c3ccccc3Cl)c2F)c2ccc(C#Cc3cnccn3)cc12 [Compound 83, 1-(2-((2S,4R)-2-(2′-chloro-2-fluorobiphenyl-3-ylcarbamoyl)-4-fluoropyrrolidin-1-yl)-2-oxoethyl)-5-(pyrazin-2-ylethynyl)-1H-indazole-3-carboxamide] | < 1 |
| NC(=O)c1nn(CC(=O)N2C[C@H](F)C[C@H]2C(=O)Nc2cncc(-c3ccccc3Cl)n2)c2ccc(C#Cc3ncc(F)cn3)cc12 [Compound 85, 1-(2-((2S,4R)-2-(6-(2-chlorophenyl)pyrazin-2-ylcarbamoyl)-4-fluoropyrrolidin-1-yl)-2-oxoethyl)-5-((5-fluoropyrimidin-2-yl)ethynyl)-1H-indazole-3-carboxamide] | < 1 |
| NC(=O)c1nn(CC(=O)N2C[C@H](F)C[C@H]2C(=O)Nc2cncc(-c3c(F)cccc3Cl)n2)c2ccc(C#Cc3ncc(F)cn3)cc12 [Compound 86, 1-(2-((2S,4R)-2-(6-(2-chloro-6-fluorophenyl)pyrazin-2-ylcarbamoyl)-4-fluoropyrrolidin-1-yl)-2-oxoethyl)-5-((5-fluoropyrimidin-2-yl)ethynyl)-1H-indazole-3-carboxamide] | < 1 |
| NC(=O)c1nn(CC(=O)N2C[C@H](F)C[C@H]2C(=O)Nc2cncc(-c3cc(F)c(F)cc3Cl)n2)c2ccc(C#Cc3ncc(F)cn3)cc12 [Compound 87, 1-(2-((2S,4R)-2-(6-(2-chloro-4,5-difluorophenyl)pyrazin-2-ylcarbamoyl)-4-fluoropyrrolidin-1-yl)-2-oxoethyl)-5-((5-fluoropyrimidin-2-yl)ethynyl)-1H-indazole-3-carboxamide] | < 1 |
| NC(=O)c1nn(CC(=O)N2C[C@H](F)C[C@H]2C(=O)Nc2cccc(Cl)n2)c2ccc(C#Cc3ncc(F)cn3)cc12 [Compound 88, 1-(2-((2S,4R)-2-(6-chloropyridin-2-ylcarbamoyl)-4-fluoropyrrolidin-1-yl)-2-oxoethyl)-5-((5-fluoropyrimidin-2-yl)ethynyl)-1H-indazole-3-carboxamide] | < 1 |
| NC(=O)c1nn(CC(=O)N2C[C@H](F)C[C@H]2C(=O)Nc2cncc(Br)n2)c2ccc(C#Cc3cnccn3)cc12 [Compound 89, 1-(2-((2S,4R)-2-(6-bromopyrazin-2-ylcarbamoyl)-4-fluoropyrrolidin-1-yl)-2-oxoethyl)-5-(pyrazin-2-ylethynyl)-1H-indazole-3-carboxamide] | < 1 |
| CC(=O)c1nn(CC(=O)N2C[C@H](F)C[C@H]2C(=O)Nc2cccc(Br)n2)c2ccc(C#Cc3ncc(F)cn3)cc12 [Compound 90, (2S,4R)-1-(2-(3-acetyl-5-((5-fluoropyrimidin-2-yl)ethynyl)-1H-indazol-1-yl)acetyl)-N-(6-bromopyridin-2-yl)-4-fluoropyrrolidine-2-carboxamide] | < 1 |
| Cc1cnc(C#Cc2ccc3c(c2)c(C(N)=O)nn3CC(=O)N2C[C@H](F)C[C@H]2C(=O)Nc2cccc(Br)n2)nc1 [Compound 91, 1-(2-((2S,4R)-2-(6-bromopyridin-2-ylcarbamoyl)-4-fluoropyrrolidin-1-yl)-2-oxoethyl)-5-((5-methylpyrimidin-2-yl)ethynyl)-1H-indazole-3-carboxamide] | < 1 |
| COc1ncc(C#Cc2ccc3c(c2)c(C(N)=O)nn3CC(=O)N2C[C@H](F)C[C@H]2C(=O)Nc2cccc(Br)n2)cn1 [Compound 92, 1-(2-((2S,4R)-2-(6-bromopyridin-2-ylcarbamoyl)-4-fluoropyrrolidin-1-yl)-2-oxoethyl)-5-((2-methoxypyrimidin-5-yl)ethynyl)-1H-indazole-3-carboxamide] | < 1 |
